Assay results as given in BindingDB's records for doi:10.1074/jbc.M109.017632 (University of California San Francisco, 2009).

Assays:
Test in all cases: Binding Assay
[1] = biological target: T1, Cytochrome P450 130 (Mycobacterium tuberculosis (strain CDC 1551 / Oshkosh), UniProt P9WPN4)
T1 sequence (P9WPN4 whole entry): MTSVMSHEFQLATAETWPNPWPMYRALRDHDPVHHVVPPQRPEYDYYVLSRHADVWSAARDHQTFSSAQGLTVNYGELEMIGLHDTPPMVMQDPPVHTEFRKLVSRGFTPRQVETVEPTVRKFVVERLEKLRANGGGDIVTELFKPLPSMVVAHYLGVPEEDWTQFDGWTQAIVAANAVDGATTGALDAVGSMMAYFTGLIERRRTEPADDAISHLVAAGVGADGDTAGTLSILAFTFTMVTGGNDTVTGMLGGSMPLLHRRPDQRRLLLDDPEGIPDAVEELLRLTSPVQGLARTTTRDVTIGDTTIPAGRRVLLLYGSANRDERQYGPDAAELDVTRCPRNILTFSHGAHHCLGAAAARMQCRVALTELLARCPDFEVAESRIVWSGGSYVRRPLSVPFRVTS
Text: (§1) Binding assay using CYP130, CYP130 (G234) or CYP142.

[2] = biological target: T2, Steroid C26-monooxygenase (Mycobacterium tuberculosis (strain CDC 1551 / Oshkosh), UniProt P9WPL4)
T2 sequence (P9WPL4 whole entry): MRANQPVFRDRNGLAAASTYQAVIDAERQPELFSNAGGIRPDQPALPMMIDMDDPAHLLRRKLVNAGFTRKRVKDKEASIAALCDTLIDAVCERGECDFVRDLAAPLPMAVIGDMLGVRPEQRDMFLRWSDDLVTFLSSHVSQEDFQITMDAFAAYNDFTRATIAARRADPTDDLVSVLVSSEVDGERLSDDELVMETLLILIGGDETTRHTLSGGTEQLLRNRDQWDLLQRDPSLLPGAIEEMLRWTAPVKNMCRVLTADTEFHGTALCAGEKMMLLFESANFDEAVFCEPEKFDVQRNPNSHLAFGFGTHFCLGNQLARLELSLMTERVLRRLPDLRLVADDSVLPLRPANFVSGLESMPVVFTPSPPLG
Text: as §1

[3] = biological target: T3, Cytochrome P450 130 (Mycobacterium tuberculosis (strain ATCC 25618 / H37Rv), UniProt P9WPN5)
T3 sequence (P9WPN5 whole entry): T1 sequence (P9WPN4 whole entry)
Text: as §1

SMILES | Kd [1] [µM] | Kd [2] [µM] | Kd [3] [µM]
Nc1ccccc1 [Aniline] | 55.2 | 59.2 | 2500
Nc1ccc(Sc2ccc(N3C(=O)c4ccc(N)cc4C3=O)cc2)cc1 [Arylamine compound 2] | 1.08 | 0.17 | 4.9
Clc1ccccc1C(c1ccccc1)(c1ccccc1)n1ccnc1 | 13.3 |  | 6.1
Cc1cccc(-n2cnc3cc(N)ccc32)c1 [Arylamine compound 4] | 4.8 |  | 32.6
NCc1ccccc1 | 9990 | 0.1 | 10000
Clc1ccc(COC(Cn2ccnc2)c2ccc(Cl)cc2Cl)cc1 (stereo unspecified) [ECONAZOLE] | 1.93 | 0.33 | 4.5
